Laboratory results reported in US10899747B2, “Biaryl piperidine amide compounds and methods of use thereof” (Athenex, Inc., priority 2017, dated 2021).

Test system: IL-2
Assay: PHA-IL2 (cell activation and cytokine analysis)
Assay type: cell-based
Conditions: 50% inhibition concentration class
Description: Cells to be tested may include, but are not limited to, a) Jurkat (a transformed human T cell leukemia), b) whole blood isolated from human or rodent sources, c) peripheral blood mononuclear cells (PBMC) freshly isolated from human or rodent whole blood, or d) purified fractions of PBMC (e.g., CD4 T cells). Cells are plated in 96-well plates at a final density of 1.0-2.0×10^6 cells/ml in 150 ul of assay medium (RPMI+0.5% fetal calf serum). Test compounds are included at a final concentration of ≤20 uM and generally pre-incubated with cells for 30 minutes prior to stimulation. An appropriate stimulus is added, including but not limited to, a) phytohemagglutinin (PHA), b) phorbol myristate acetate (PMA) and ionomycin, or c) stimulatory antibodies to the T cell receptor (TCR) complex (e.g., anti-CD3ε) and CD28. Cell cultures are stimulated for 24-48 hours in a humidified incubator (37 degrees C./5% CO2). A fraction of the culture supernatant is than harvested from each well and assayed for the presence of appropriate cytokine using standard ELISA. Cytokines to be analyzed may include IL-2, IL-4, IL-10, IL-17, IL-22, IFNγ, and/or TNFα. If required, the number of cytokine producing cells can be determined using intracellular staining and flow cytometry. […]

IC50, 10 to 50 µM:
O=C(NCCO)c1ccc(-c2ccccc2OCC(=O)N2CCC(CCc3ccc4c(c3)OCO4)CC2)cc1 [Compound 182]
NC(=O)c1ccc(-c2ccccc2OCC(=O)N2CCC(CCc3ccc4c(c3)OCO4)CC2)cc1 [Compound 183]
O=C(O)c1cccc(-c2ccccc2OCC(=O)N2CCC(CCc3ccc4c(c3)OCO4)CC2)c1 [Compound 158]
O=C(COc1ccncc1-c1ccc(F)cc1O)N1CCC(CCc2ccc3c(c2)OCO3)CC1 [Compound 331]
O=C(COc1ccccc1-c1ccccc1OC(F)(F)F)N1CCC(CCc2ccc3c(c2)OCO3)CC1 [Compound 184]
O=C(COc1ccccc1-c1ccc(F)cc1F)N1CCC(CCc2ccc3c(c2)OCO3)CC1 [Compound 236]
CCN(CC)C(=O)c1cccc(-c2ccccc2OCC(=O)N2CCC(CCc3ccc4c(c3)OCO4)CC2)c1 [Compound 185]
N#Cc1ccc(-c2cnccc2OCC(=O)N2CCC(CCc3ccc4c(c3)OCO4)CC2)cc1 [Compound 327]
O=C(CCc1ccccc1-c1ccccc1)N1CCC(CCc2cc(F)cc(F)c2)CC1 [Compound 220]

IC50, < 1 µM:
COc1cccc(-c2ccccc2OCC(=O)N2CCC(CCc3ccc4c(c3)OCO4)CC2)c1OC [Compound 241]
O=C(COc1ccccc1-c1cc(F)c(F)c(F)c1)N1CCC(CCc2ccc3c(c2)OCO3)CC1 [Compound 200]
O=C1COc2ccc(CCC3CCN(C(=O)COc4ccccc4-c4ccc(Cl)nc4)CC3)cc2N1 [Compound 259]
O=C(c1ccccc1)c1ccc(-c2ccccc2OCC(=O)N2CCC(CCc3ccc(O)cc3)CC2)cc1 [Compound 314]
Cc1ccc(-c2ccccc2OCC(=O)N2CCC(CCc3ccccc3)CC2)nn1 [Compound 422]
N#Cc1ccc(OCC(=O)N2CCC(CCc3ccccc3)CC2)c(-c2ccc(F)cc2O)c1 [Compound 345]
O=C(COc1ccccc1-c1ccccc1Cl)N1CCC(CCc2ccc3c(c2)OCO3)CC1 [Compound 165]
O=C(COc1cccnc1-c1ccc(F)cc1O)N1CCC(CCc2cccc(OC3CCCC3)c2)CC1 [Compound 410]
COCc1ccc(CCC2CCN(C(=O)COc3ccccc3-c3ccc(F)cc3O)CC2)cc1 [Compound 308]
O=C1NCCOc2ccc(CCC3CCN(C(=O)COc4ccccc4-c4ccccc4)CC3)cc21 [Compound 284]
N#Cc1ccc(OCC(=O)N2CCC(CCc3ccc4c(c3)OCCO4)CC2)c(-c2ccc(F)cc2O)c1 [Compound 347]
CC(C)NC(=O)c1ccc(OCC(=O)N2CCC(CCc3ccccc3)CC2)c(-c2ccc(C#N)cc2)c1 [Compound 317]
O=C(COc1ccccc1-c1ccc2[nH]ncc2c1)N1CCC(CCc2ccc3c(c2)OCO3)CC1 [Compound 249]
CCc1ccc(OCC(=O)N2CCC(CCc3ccc4c(c3)OCO4)CC2)c(-c2ccc3[nH]ncc3c2)c1 [Compound 277]
O=C(COc1ccccc1-c1ccccc1O)N1CCC(CCc2ccc(O)cc2)CC1 [Compound 282]
CCc1ccc(OCC(=O)N2CCC(CCc3ccc4c(c3)OCO4)CC2)c(-c2ccccc2)c1 [Compound 276]
CC(C)Oc1ccc(CCC2CCN(C(=O)COc3ccccc3-c3ccc(C#N)cc3)CC2)cc1 [Compound 430]
COc1cccc(CCC2CCN(C(=O)C(C)Oc3c(C)cccc3-c3ccccc3)CC2)c1 (centres unmarked) [Compound 235]
O=C(COc1ccccc1-c1ccc2[nH]ncc2c1)N1CCC(CCc2ccc3c(c2)OCCCO3)CC1 [Compound 267]
O=C(COc1ccccc1-c1ccc(F)cc1O)N1CCC(CCc2ccc(N3CCOCC3)cc2)CC1 [Compound 305]
O=C(C1CC1c1ccccc1-c1ccc(F)cc1O)N1CCC(CCc2ccccc2)CC1 (centres unmarked) [Compound 405]
COc1ccc(-c2ccccc2OCC(=O)N2CCC(CCc3ccc4c(c3)OCO4)CC2)cn1 [Compound 199]
O=C(COc1ccccc1-c1ccc(F)cc1O)N1CCC(CCc2cccc(C(F)(F)F)c2)CC1 [Compound 310]
COc1ccc(F)c(-c2ccccc2OCC(=O)N2CCC(CCc3ccc4c(c3)OCO4)CC2)c1 [Compound 238]
CCCOc1ccc(CCC2CCN(C(=O)COc3ccccc3-c3ccc(C#N)cc3)CC2)cc1OCCC [Compound 300]
N#Cc1ccc(-c2ccccc2OCC(=O)N2CCC(CCc3ccc4c(c3)OCCO4)CC2)cn1 [Compound 297]
O=C(COc1ccccc1-c1ccc(F)cc1O)N1CCC(CCc2ccc3c(c2)OCO3)CC1 [Compound 288]
COc1cccc(CCC2CCN(C(=O)COc3ccc(C#N)cc3-c3ccc(F)cc3O)CC2)c1 [Compound 352]
CC(C)Oc1ccc(CCC2CCN(C(=O)COc3ccccc3-c3ccc(F)cc3O)CC2)cc1 [Compound 432]
O=C(COc1ccccc1-c1ccc2[nH]ncc2c1)N1CCC(CCc2ccc(O)cc2)CC1 [Compound 281]
CC(C)Oc1ccccc1CCC1CCN(C(=O)COc2ccccc2-c2ccc(C#N)cc2)CC1 [Compound 427]
N#Cc1cc(-c2ccccc2OCC(=O)N2CCC(CCc3ccc4c(c3)OCO4)CC2)ccc1F [Compound 188]

IC50, 1 to 10 µM:
COc1cccc(CCC2CCN(C(=O)COc3cccnc3-c3ccc4[nH]ccc4c3)CC2)c1 [Compound 377]
COc1ccccc1CCC1CCN(C(=O)COc2ccccc2-c2ccccc2)CC1 [Compound 126]
Cc1ccc(C#CC2CCN(C(=O)COc3ccc(C#N)cc3-c3ccc(C#N)cc3)CC2)nn1 [Compound 428]
O=C(c1ccccc1)c1ccc(-c2ccccc2OCC(=O)N2CCC(CCc3cc(Br)c(O)c(Br)c3)CC2)cc1 [Compound 332]
O=C(COc1ccccc1-c1ccc(F)cc1O)N1CCC(CCc2cccc(OCCN3CCCC3)c2)CC1 [Compound 359]
O=C(COc1ccccc1-c1ccc(F)cc1O)N1CCC(CCc2cccnc2)CC1 [Compound 393]
O=C1COc2ccc(CCC3CCN(C(=O)COc4ccccc4-c4ccccc4)CC3)cc2N1 [Compound 254]
N#Cc1ccc(-c2ccccc2CCC(=O)N2CCC(CCc3ccc4c(c3)OCO4)CC2)cc1 [Compound 225]
CCCCOc1cccc(-c2ccccc2OCC(=O)N2CCC(CCc3ccc4c(c3)OCO4)CC2)c1 [Compound 246]
COc1ccc(CCC2CCN(C(=O)COc3ccccc3-c3ccc(F)cc3O)CC2)cc1OCCN1CCOCC1 [Compound 391]
COc1cccc(CCC2CCN(C(=O)COc3ccc(S(N)(=O)=O)cc3-c3ccc(C#N)cc3)CC2)c1 [Compound 385]
Cc1cccc(-c2ccccc2)c1OC(C)C(=O)N1CCC(CCc2cc(F)cc(F)c2)CC1 (centres unmarked) [Compound 229]
COc1cccc(CCC2CCN(C(=O)COc3cccnc3-c3ccc4c(cnn4C)c3)CC2)c1 [Compound 373]
O=C(COc1ccccc1-c1ccc2[nH]cnc2c1)N1CCC(CCc2ccc(O)cc2)CC1 [Compound 383]
O=C(COc1ccccc1-c1cccc(O)c1)N1CCC(CCc2ccc3c(c2)OCO3)CC1 [Compound 160]
Nc1ccc(CCC2CCN(C(=O)COc3ccccc3-c3ccccc3)CC2)cn1 [Compound 255]
N#Cc1ccc(OCC(=O)N2CCC(CCc3ccccc3)CC2)c(-c2ccc3[nH]cnc3c2)c1 [Compound 372]
Cn1ncc2cc(-c3ncccc3OCC(=O)N3CCC(CCc4ccc5c(c4)OCO5)CC3)ccc21 [Compound 375]
O=C(CSc1ccccc1-c1ccccc1)N1CCC(CCc2ccc3c(c2)OCO3)CC1 [Compound 286]
O=C(COc1ccc(C(F)(F)F)cc1-c1ccc(F)cc1O)N1CCC(CCc2cccc(OCCN3CCOCC3)c2)CC1 [Compound 356]
O=C(COc1ccccc1-c1ccc(F)cc1O)N1CCC(CCc2ccncc2)CC1 [Compound 392]
N#Cc1ccc(-c2ncccc2OCC(=O)N2CCC(CCc3ccc4c(c3)OCO4)CC2)cc1 [Compound 323]
O=C(COc1ccccc1-c1ccc2nonc2c1)N1CCC(CCc2ccc3c(c2)OCO3)CC1 [Compound 174]
CC(C)Oc1cccc(CCC2CCN(C(=O)COc3ccccc3-c3ccc(C(=O)c4ccc(O)cc4)cc3)CC2)c1 [Compound 421]
COc1cccc(CCC2CCN(C(=O)COc3ccccc3-c3ccc(C(F)(F)F)cc3O)CC2)c1 [Compound 364]
O=C(COc1ccccc1-c1cccc(OC(F)(F)F)c1)N1CCC(CCc2ccc3c(c2)OCO3)CC1 [Compound 179]
Cn1ccc2cc(-c3ncccc3OCC(=O)N3CCC(CCc4ccc5c(c4)OCO5)CC3)ccc21 [Compound 379]
N#Cc1ccc(-c2cccnc2OCC(=O)N2CCC(CCc3ccc4c(c3)OCO4)CC2)cc1 [Compound 324]
C#CCOc1ccc(CCC2CCN(C(=O)COc3ccccc3-c3ccc(C(=O)c4ccccc4)cc3)CC2)cc1 [Compound 412]
O=C(/C=C/c1ccccc1-c1ccc(F)cc1O)N1CCC(CCc2ccc3c(c2)OCO3)CC1 [Compound 344]
